Earlier results, collected in patent US20210038669A1, “Composition(s) for Topically Treating Pain” (priority 2016, published 2021).

Tested on: neuropathic pain conditions (postherpetic neuralgia, trigeminal, postsurgical or post-traumatic neuralgia)
Conditions: 5% patch, 5% cream, 5% gel, 8% spray; all but one study; third tier (very low quality) evidence

For CCN(CC)CC(=O)Nc1c(C)cccc1C [lidocaine, Lidocaine], the “pain relief versus placebo” value is given as “better than placebo”.
